How the values were obtained:
[1] = target: T1, human recombinant ETA receptors (Homo sapiens, UniProt P25101); experiment: Inhibition of [125I]ET-1 binding to membranes from CHO cells carrying human ETA receptors
T1 construct: expressed in transfected cells; host or cells: CHO cells (microsomal membranes)
T1 sequence (P25101 21-427): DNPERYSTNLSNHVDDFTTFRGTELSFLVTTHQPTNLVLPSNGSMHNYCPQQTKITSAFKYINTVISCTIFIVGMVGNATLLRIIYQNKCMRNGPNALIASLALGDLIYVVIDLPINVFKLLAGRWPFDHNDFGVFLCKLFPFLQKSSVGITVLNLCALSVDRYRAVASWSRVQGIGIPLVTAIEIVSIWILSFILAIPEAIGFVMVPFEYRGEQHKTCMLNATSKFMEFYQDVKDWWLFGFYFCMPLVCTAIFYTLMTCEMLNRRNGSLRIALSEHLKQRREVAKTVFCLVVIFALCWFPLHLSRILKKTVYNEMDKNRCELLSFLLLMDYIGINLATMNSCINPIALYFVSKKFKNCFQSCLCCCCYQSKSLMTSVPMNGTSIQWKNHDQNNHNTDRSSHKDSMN

[2] = target: T2, human recombinant ETB receptors (Homo sapiens, UniProt P24530); experiment: Inhibition of [125I]ET-1 binding to membranes from CHO cells carrying human ETB receptors; also: 2.5% DMSO
T2 construct: expressed in transfected cells; host or cells: CHO cells (microsomal membranes)
T2 sequence (P24530 27-442): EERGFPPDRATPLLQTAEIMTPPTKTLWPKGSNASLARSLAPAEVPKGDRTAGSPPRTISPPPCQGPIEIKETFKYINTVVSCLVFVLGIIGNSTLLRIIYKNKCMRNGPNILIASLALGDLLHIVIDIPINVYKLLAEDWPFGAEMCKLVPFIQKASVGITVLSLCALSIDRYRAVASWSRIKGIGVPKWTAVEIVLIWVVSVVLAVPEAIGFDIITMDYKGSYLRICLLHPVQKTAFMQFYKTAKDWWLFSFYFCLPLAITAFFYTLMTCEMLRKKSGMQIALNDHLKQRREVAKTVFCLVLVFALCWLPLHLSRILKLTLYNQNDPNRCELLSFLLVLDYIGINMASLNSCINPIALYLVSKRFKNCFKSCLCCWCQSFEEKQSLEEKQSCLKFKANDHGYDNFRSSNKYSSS
Method: 1) Inhibition of Endothelin Binding to Membranes from CHO Cells Carrying Human ET Receptors:
For competition binding studies, membranes of CHO cells expressing human recombinant ETA or ETB receptors were used. Microsomal membranes from recombinant CHO cells were prepared and the binding assay made as previously described (Breu V., et al, FEBS Lett 1993; 334:210).
The assay is performed in 200 uL 50 mM Tris/HCl buffer, pH 7.4, including 25 mM MnCl2, 1 mM EDTA and 0.5% (w/v) BSA in polypropylene microtiter plates. […]. […] After 2 h, the membranes were filtered on filterplates containing GF/C filters (Unifilterplates from Canberra Packard S. A. Zürich, Switzerland). To each well, 50 uL of scintillation cocktail is added (MicroScint 20, Canberra Packard S. A. Zürich, Switzerland) and the filter plates counted in a microplate counter (TopCount, Canberra Packard S. A. Zürich, Switzerland).
All the test compounds were dissolved, diluted and added in DMSO. […] […].

[3] = target: T3, ETA receptors (rat aortic rings) (Rattus norvegicus, UniProt P26684); experiment: Inhibition of endothelin-1-induced contraction of isolated rat aortic rings; assay type: cell-based; conditions: read-out: pA2 value Aorta (converted)
T3 construct: The thoracic aorta or trachea were excised, dissected and cut in 3-5 mm rings; from tissue; host or cells: thoracic aorta rings of adult Wistar rats, endothelium removed
T3 sequence (P26684 21-426): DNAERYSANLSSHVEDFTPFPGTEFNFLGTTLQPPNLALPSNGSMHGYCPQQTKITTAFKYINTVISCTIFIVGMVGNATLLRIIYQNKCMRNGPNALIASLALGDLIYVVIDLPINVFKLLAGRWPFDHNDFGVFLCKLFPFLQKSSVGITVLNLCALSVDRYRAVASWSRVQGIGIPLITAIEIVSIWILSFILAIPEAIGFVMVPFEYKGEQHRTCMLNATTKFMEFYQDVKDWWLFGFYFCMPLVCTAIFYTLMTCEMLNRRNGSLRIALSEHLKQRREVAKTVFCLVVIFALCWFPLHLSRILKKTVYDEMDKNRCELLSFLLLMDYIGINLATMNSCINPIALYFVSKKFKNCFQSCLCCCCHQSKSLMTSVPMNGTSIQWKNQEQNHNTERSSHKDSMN
Method: (§1) 2) Inhibition of Endothelin-Induced Contractions on Isolated Rat Aortic Rings (ETA Receptors) and Rat Tracheal Rings (ETB Receptors):
(§2) The functional inhibitory potency of the endothelin antagonists was assessed by their inhibition of the contraction induced by endothelin-1 on rat aortic rings (ETA receptors) and of the contraction induced by sarafotoxin S6c on rat tracheal rings (ETB receptors). Adult Wistar rats were anesthetized and exsanguinated. The thoracic aorta or trachea were excised, dissected and cut in 3-5 mm rings. The endothelium/epithelium was removed by gentle rubbing of the intimal surface. Each ring was suspended in a 10 mL isolated organ bath filled with Krebs-Henseleit solution (in mM; NaCl 115, KCl 4.7, MgSO4 1.2, KH2PO4 1.5, NaHCO3 25, CaCl2 2.5, glucose 10) kept at 37° C. and gassed with 95% O2 and 5% CO2. The rings were connected to force transducers and isometric tension was recorded (EMKA Technologies SA, Paris, France). The rings were stretched to a resting tension of 3 g (aorta) or 2 g (trachea). […] The functional inhibitory potency of the test compound was assessed by calculating the concentration ratio, i.e. the shift to the right of the EC50 induced by different concentrations of test compound. […]

[4] = target: T4, ETB receptors (rat tracheal rings) (Rattus norvegicus, UniProt P21451); experiment: Inhibition of sarafotoxin S6c-induced contraction of isolated rat tracheal rings; assay type: cell-based; conditions: contraction induced by sarafotoxin S6c, 10 min incubation, read-out: pA2 value Trachea (converted)
T4 construct: The thoracic aorta or trachea were excised, dissected and cut in 3-5 mm rings; from tissue; host or cells: tracheal rings of adult Wistar rats, epithelium removed
T4 sequence (P21451 27-442): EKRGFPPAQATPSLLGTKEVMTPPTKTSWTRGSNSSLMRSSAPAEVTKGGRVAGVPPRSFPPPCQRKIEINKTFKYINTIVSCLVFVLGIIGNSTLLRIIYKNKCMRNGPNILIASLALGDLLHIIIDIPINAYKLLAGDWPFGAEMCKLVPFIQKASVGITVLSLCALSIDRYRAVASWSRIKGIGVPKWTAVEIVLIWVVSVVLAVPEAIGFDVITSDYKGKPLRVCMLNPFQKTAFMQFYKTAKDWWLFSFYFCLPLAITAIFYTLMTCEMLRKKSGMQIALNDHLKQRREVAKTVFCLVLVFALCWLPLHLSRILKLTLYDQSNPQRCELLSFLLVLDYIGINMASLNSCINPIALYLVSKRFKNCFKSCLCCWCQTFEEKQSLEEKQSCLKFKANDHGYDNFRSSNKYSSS
Method: as §1, §2

SMILES | IC50 [1] [nM] | IC50 [2] [nM] | Kb [3] [nM] | Kb [4] [nM]
O=C(O)CCNS(=O)(=O)Nc1ncnc(OCCOc2ncc(Br)cn2)c1-c1ccc(Br)cc1 [Example 2] | 0.656 | 330 | 6.31 | 794
O=S(=O)(NCCCO)Nc1ncnc(OCCOc2ncc(Br)cn2)c1-c1ccc(Br)cc1 [Example 1, 1-hydroxypropanesulfamic acid[6-(2-(5-bromopyrimid-2-yloxy)-ethoxy)-5-(4-bromophenyl)-pyrimidin-4-yl]-amide] | 0.603 | 322 | 100 | 3160

— patent publication US7868012B2, “Sulfamides as endothelin receptor antagonists for the treatment of cardiovascular diseases” (Actelion Pharmaceuticals, Ltd., priority 2004, dated 2011)
